According to patent US20230414596A1 (PRILENIA NEUROTHERAPEUTICS LTD., priority 2020, published 2023):
Values joined by “and” are separate entries in the source; they are usually repeats but may differ in a detail not shown here. Equal values may be shown once. Read-outs that look alike come from different tables or passages of the source. Each block holds one molecule with its values, some of them ahead of it.

Legend:
Sigma-2 receptor (S2R) = Sigma-2 receptor (S2R) (Homo sapiens (Human), UniProt Q5BJF2); assay: Sigma-2 receptor in-vitro binding assay
Chain of Sigma-2 receptor (S2R) (Q5BJF2 whole entry, species assumed): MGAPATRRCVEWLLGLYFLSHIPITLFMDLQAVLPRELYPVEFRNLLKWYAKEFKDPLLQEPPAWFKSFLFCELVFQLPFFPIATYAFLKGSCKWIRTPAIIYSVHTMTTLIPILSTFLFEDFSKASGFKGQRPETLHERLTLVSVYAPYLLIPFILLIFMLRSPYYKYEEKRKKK

[1] = tested on: B104 rat neuroblastoma cells; assay: BDNF release in-situ ELISA in B104 neuroblastoma cells; format: cell-based; conditions: 5 days
From the text: […]. Compound 4 alone had no effect on BDNF secretion—(1.5%). […]. Compound 4 alone had no effect on BDNF secretion (−1.5%). […].

[2] = tested on: female MeCP2 heterozygous (Rett) mice; conditions: 30 mg/kg bid orally, 8 weeks of age
Protocol: Clasping is used to assess muscular strength in limb muscles. Hindlimb clasping is measured in mice held by the tail and gently lifted until the front paws just lift off the counter surface. The experimenter observes the legs and determines clasping or splaying of limbs. […] Data are mean±SEM, N-1 two-proportional tests.
(§1) Dosing commenced when mice were ˜5.5 weeks of age and continued through the end of behavioral testing. Behavioral testing was done at 8 and 12 weeks of age.
Mice were held by the tail and gently lifted until the front paws just lift off the counter surface. The experimenter observed the legs and determined clasping or splaying of limbs. After testing, animals were placed back into the test or home cage. Percent clasping of the hindlimbs was determined and reported.

early HD patients = conditions: 45 mg bid
From the text: Change from baseline in UHDRS TMS gait balances week 26 (A) and Week 52(B) in early HD (baseline TFC 7-13) patients in the PRIDE-HD study.
Change from baseline in UHDRS TMS gait and balances scale at weeks 26 and 52 in early HD (baseline TFC 7-13).

[3] = tested on: B6.129P2-Mecp2tm2Bird/J (Rett-KO) male mice; conditions: 30 mg/kg bid
Protocol: The room temperature was maintained between 20 and 23° C. with a relative humidity maintained around 50%. Chow and water were provided ad libitum for the duration of the study.

[4] = tested on: female MeCP2 heterozygous (Rett) mice; conditions: for Recovery of overall gait features: female Rett mice, 30 mg/kg bid
Protocol: FIG. 1: Feature recovery as a measure of the therapeutic drug effect on Mecp2-KO Rett Syndrome model mice. This figure is intended to provide an explanation as to how the data is analyzed in FIGS. 4, 5 and 12.
Left: “the cloud graph”: Visualization of the control−disease−(disease+treatment) groups relationship in the optimal discrimination feature space.
The drug treatment effect can be represented as a combination of two components: one along the direction of the “recovery line” (the line connecting the centers of the control (WT) and disease (MECP2-KO) clouds, shown as a thick arrow to the left with diagonal lines on top), and the component orthogonal to (“pointing away” from) that direction shown as an arrow pointing up with parallel lines within. The relative length of the “recovery” arrow with respect to the control-disease distance can then be interpreted as the “recovery due to the drug”, whereas the relative length of the “other effect” (orthogonal with parallel lines inside) arrow represents feature changes that move the disease mice+treatment group away from the control group. The summary of this analysis can be effectively represented as a bar graph (right pane in FIG. 1A) which is typically referred to as the recovery signature.
Right: “the recovery signature” graph: The bar graph represents the summary of the recovery analysis. The overlap and discrimination probability sum up to 100%. The recovery ranges from […]. The lower the overlap, the better the quality of the disease model, and the higher the discrimination power between the WT and Rett mice groups. The “other behavioral effect” is in the same relative units (relative to the length of the distance between the WT and Rett mice groups).
The NeuroCube® system is a platform that employs computer vision to detect changes in gait geometry and gait dynamics in rodent models of neurological disorders, pain & neuropathies. This platform is unique for gait testing for the following reasons: • It is completely automated and thus removes any bias or subjectivity • This system captures both gait geometry and gait dynamics (stance, swing, propulsion, etc.)
Mice were placed in the NeuroCube for a 5 min test. The most dominant of the features collected that define the disease phenotype (symptom descriptors) was identified and ranked. Complex bioinformatic algorithms were employed to calculate the discrimination probability between the WT and the Rett HET MeCP2 mice and detect a test compound's ability to reverse the disease phenotype. Discriminations between mutant and wild type was calculated as well as the recovery of disease features in Rett HET MeCP2 mice treated with the test compound.
The output of NeuroCube is a set of dozens of behavioral features that are submitted for analysis with machine learning techniques used in bioinformatics. Many of these features are correlated (e.g. rearing counts and supported rearing counts). Therefore, PGI forms statistically independent combinations of the original features (further referred to as de-correlated features) that discriminate between the two groups more effectively.
Each de-correlated feature extracts information from the whole cluster of the original features, so the new feature space has lower dimensionality. Next, PGI applies a proprietary feature ranking algorithm to score each feature's discrimination power (ability to separate the two groups, e.g. control and disease).
Ranking is an important part of the analyses because it weighs each feature change by its relevance: if there is a significant change in some irrelevant feature measured for a particular phenotype, the low rank of this feature will automatically reduce the effect of such change in the analyses, so there is no need to resort to the conventional “feature selection” approach and discard information buried in the less informative features.

[5] = tested on: female MeCP2 heterozygous (Rett) mice; conditions: 3 mg/kg bid
Protocol: as §1
Mice were placed in the PPI chambers (Med Associates) for a 5 min session of white noise (70 dB) habituation.
The inter-trial interval was variable with an average of 15 s (range from 10 to 20 s).

[6] = tested on: B104 rat neuroblastoma cells; conditions: in-situ ELISA, Geva et al. 2016; cited from earlier work
[7] = tested on: cultured cortical neurons from the HD YAC128 mouse model; conditions: Smith-Dijak et al., 2019; cited from earlier work
[8] = tested on: Rett disease gene expression signature
[9] = tested on: BDNF transcripts (BDNF I, IV, VI, IX) mRNA; conditions: whole brain, Rett mice
From the text: FIGS. 6A-6C, 7, 8, 9, 10: These figures display mRNA levels of BDNF transcripts measured in the brains of female heterozygous MeCP2 (Rett) mice. […] The relative quantity of the gene target is normalized to the geometric means of the relative quantity of the housekeeping genes APT5B, GAPDH and RPK12A. Relative level of the target gene was then normalized to the WT vehicle group. All data are represented as the mean±SEM. ANOVA followed by Tukey's multiple comparisons test.
Mice were euthanized via cervical dislocation and decapitated. From 10 mice/treatment group, whole brains were collected, weighed, and then frozen on dry ice. Samples were stored at −80° C. until analysis of brain-derived neurotrophic factor (BDNF).
Tissues (whole brain) were homogenized, and RNA extracted and quantified. An aliquote was reverse-transcribed into cDNA.
Up to three independent RT reactions were performed for each RNA sample. qPCR was performed using the primers detailed in Table 5 below.
Whole brain cDNA prepared from a pooled sample of WT vehicle treated animals was used as calibrator (calibrator is diluted same as sample cDNA) to normalized plate-to-plate variations. Each cDNA sample (diluted 1:10) was assayed in triplicates and the Ct values averaged.
Relative quantity of the PCR product (relative to the calibrator) was calculated as follows:
Relative Quantity of Target gene=(PCR EfficiencyTarget)^(Ct caltbrator-Ctsample)
Geometric mean=(relative quantity of housekeeping gene1*relative quantity of housekeeping gene2*relative quantity of housekeeping gene3)^(1/3)
Relative Quantity of Target gene Geometric mean of housekeeping genes
Relative level of target gene was then normalized to the WT vehicle group.

Structure (SMILES): CCCN1CCC(O)(c2cccc(S(C)(=O)=O)c2)CC1 [Compound 1]
S1R fold selectivity (S2R/S1R) (Sigma-2 receptor (S2R)): >270 fold
Increase in BDNF release vs untreated control ([1]; Compound 1 alone 1 μM): 12.5%

S1R fold selectivity (S2R/S1R) (Sigma-2 receptor (S2R)): >35 fold
Structure (SMILES): CCCN1CC[C@@H](c2cccc(S(C)(=O)=O)c2)[C@@H](O)C1 [Compound 4]

Structure (SMILES): CCCN1CCC(c2cccc(S(C)(=O)=O)c2)CC1 [Pridopidine, 4-[3-(methylsulfonyl)phenyl]-1-propyl-piperidine]
Percent clasping of the hindlimbs [2]: zero
Percent clasping of the hindlimbs ([2]; listed as pridopidine): 0%
UHDRS TMS gait and balance, Δ from placebo (early HD patients; HD1 (TFC 11-13), Week 26): −0.31
UHDRS TMS gait and balance, Δ from placebo (early HD patients; HD1 (TFC 11-13), Week 52): −0.94
UHDRS TMS gait and balance, Δ from placebo (early HD patients; HD2 (TFC 7-10), Week 26): −0.53
UHDRS TMS gait and balance, Δ from placebo (early HD patients; HD2 (TFC 7-10), Week 52): −0.18
UHDRS TMS gait and balance, Δ from placebo (early HD patients; early HD (TFC 7-13), Week 26): −0.48
UHDRS TMS gait and balance, Δ from placebo (early HD patients; early HD (TFC 7-13), Week 52): −0.41
Recovery of gait deficits ([3]; 6 weeks of age): 44%
Recovery of gait deficits ([3]; 7 weeks of age): 100%
% Recovery 3 mg/kg BID, Body Motion ([4]; 8 weeks, 3 mg/kg BID): 81%,
% Recovery 3 mg/kg BID, Gait ([4]; 8 weeks, 3 mg/kg BID): 38%,
% Recovery 30 mg/kg BID, Body Motion ([4]; 8 weeks, 30 mg/kg BID): 84%,
% Recovery 30 mg/kg BID, Gait ([4]; 8 weeks, 30 mg/kg BID): 71%,
% Recovery 3 mg/kg BID, Body Motion ([4]; 12 weeks, 3 mg/kg BID): 65%,
% Recovery 3 mg/kg BID, Gait ([4]; 12 weeks, 3 mg/kg BID): 60%,
% Recovery 3 mg/kg BID, Paw Positioning ([4]; 12 weeks, 3 mg/kg BID): 35%,
% Recovery 30 mg/kg BID, Body Motion ([4]; 12 weeks, 30 mg/kg BID): 59%,
% Recovery 30 mg/kg BID, Gait ([4]; 12 weeks, 30 mg/kg BID): 100%,
% Recovery 30 mg/kg BID, Paw Positioning ([4]; 12 weeks, 30 mg/kg BID): 52%,
Recovery of overall gait features ([4]; 8 weeks of age): 45%
Recovery of overall gait features ([4]; 12 weeks of age): 55%
Rescue effect on mean startle response ([5]; 8 weeks of age): ~40%
Rescue effect on mean startle response ([5]; 12 weeks of age): ~50%
BDNF secretion in rat neuroblastoma cells [6]: dose dependent increase
Impaired homeostatic synaptic plasticity (HSP) [7]: restores impaired HSP
NES (normalized enrichment score), genes downstream to BDNF ([8]; 30 mg/kg BID, BDNF-TrkB pathway genes): 1.752
NES (normalized enrichment score) ([8]; cortex, 3 mg/kg BID, geneset Prido Down / Rett Up): 1.356
NES (normalized enrichment score) ([8]; cortex, 3 mg/kg BID, geneset Prido Up / Rett Down): 1.477
NES (normalized enrichment score) ([8]; cortex, 30 mg/kg BID, geneset Prido Down / Rett Up): 2.081
NES (normalized enrichment score) ([8]; cortex, 30 mg/kg BID, geneset Prido Up / Rett Down): −2.631
Reversal of Rett gene expression pattern ([8]; striatum and cortex of Rett mice, GSEA): strongly reverses
NES (normalized enrichment score) ([8]; striatum, 3 mg/kg BID, geneset Down with Prido / Up in Rett): 2.18
NES (normalized enrichment score) ([8]; striatum, 3 mg/kg BID, geneset Up with Prido / Down in Rett): −2.50
NES (normalized enrichment score) ([8]; striatum, 30 mg/kg BID, geneset Up with Prido / Down in Rett): −1.77
Increase in BDNF release vs untreated control ([1]; pridopidine alone 0.001 μM): 13.6% and 13.5%
Increase in BDNF release vs untreated control ([1]; pridopidine alone 0.005 μM): 26%
Increase in BDNF release vs untreated control ([1]; pridopidine alone 0.01 μM ([…] in FIG. 17 legend)): 3.4%
Increase of BDNF IV mRNA levels ([9]; 3 mg/kg bid and 30 mg/kg bid): ~30%
Effect on mRNA expression of housekeeping genes ATP5B, GAPDH, RPL13A ([9]; 3 and 30 mg/kg bid): does not affect
Effect on BDNF I mRNA levels ([9]; 3 or 30 mg/kg bid): does not affect
Effect on BDNF VI mRNA levels ([9]; 3 or 30 mg/kg bid): does not affect
